Measurements from patent US20230348424A1, “HETEROCYCLIC COMPOUNDS AND METHODS OF USE” (Schrödinger, Inc., priority 2022, published 2023).

Biological target: SOS1:KRAS (G12C) interaction (Homo sapiens (Human), UniProt Q07889)
Experiment: SOS1 KRas(G12C) FRET Assay
Assay type: binding
Settings: 0.5 nM His10-SOS1 (res. 564-1049), 2.5 nM GST-KRAS G12C (res. 1-169), 2 hrs at RT
Description: Inhibition of the SOS 1:KRAS interaction was measured using purified GST-tagged KRAS (res. 1-169, G12C, purified based on Hillig, et al., Proc Natl Acad Sci USA (2019); 116(7):2551-2560) and recombinant His10-SOS1 (res. 564-1049; purified based on Hillig, et al.). The final assay was performed at 20 uL with 0.5 nM SOS1 protein and 2.5 nM KRAS protein in a buffer of PBS, 0.1% BSA, 5 mM MgCh, 0.0025% Igepal, 100 mM KF, 5 mM DTT in a white 384 square well OptiPlate (PerkinElmer, Cat. 6007290). A 2x KRAS working solution was prepared in an assay buffer containing 5 nM GST-KRAS G12C and 2 nM anti-GST-Eu(K) (Cisbio, Cat. 61GSTKLA) and pre-incubated for 15 minutes at 25° C. […] The final DMSO concentration is 0.5%. Plates were incubated at RT for 2 hrs before the FRET signal was measured using Envision at emission 665 nm and 615 nm. FRET signal was converted to percentage of protein-protein interaction using the following equation:
• C: signal with compound treatment • P: signal for positive control (DMSO) • N: signal for negative control (no SOS1 added)
IC50 and Hill coefficients were obtained using Graph Pad Prism (Graph Pad software, Inc, USA) with non-linear regression analysis.

Sequence of SOS1:KRAS (G12C) interaction (Q07889 564-1049, stated change not applied): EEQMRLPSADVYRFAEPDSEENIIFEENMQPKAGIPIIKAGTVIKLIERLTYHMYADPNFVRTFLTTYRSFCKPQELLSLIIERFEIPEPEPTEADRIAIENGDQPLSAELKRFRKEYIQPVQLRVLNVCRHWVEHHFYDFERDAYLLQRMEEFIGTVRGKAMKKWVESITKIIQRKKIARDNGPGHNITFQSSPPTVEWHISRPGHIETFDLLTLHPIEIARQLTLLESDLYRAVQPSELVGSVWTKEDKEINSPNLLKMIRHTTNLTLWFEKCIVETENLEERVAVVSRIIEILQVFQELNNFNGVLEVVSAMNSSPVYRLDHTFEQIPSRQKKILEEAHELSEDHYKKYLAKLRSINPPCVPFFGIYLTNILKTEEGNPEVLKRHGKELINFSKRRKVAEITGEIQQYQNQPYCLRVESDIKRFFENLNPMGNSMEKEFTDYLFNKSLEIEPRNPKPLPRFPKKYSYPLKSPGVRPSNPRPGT

Cc1c([C@@H](C)NC(=O)c2cn(C3CCOCC3)c(=O)cc2NC2[C@@H]3C[C@H]2CN(C)C3)cccc1C(F)(F)F (single isomer, unassigned) [Example 22]
IC50: 25.9 nM

Cc1c([C@@H](C)NC(=O)c2cn(C3CCOCC3)c(=O)cc2N[C@H]2[C@@H]3C[C@H]2CN(C)C3)cccc1C(F)(F)F (single isomer, unassigned) [Example 23]
IC50: 47.1 nM

Cc1c([C@@H](C)NC(=O)c2cn(C3CCOCC3)c(=O)cc2N[C@@H]2[C@@H]3CC[C@H]2CN(C)C3)cccc1C(F)(F)F (single isomer, unassigned) [Example 31]
IC50: 27.6 nM

Cc1c([C@@H](C)NC(=O)c2cn(C3CCOCC3)c(=O)cc2N[C@H]2[C@@H]3CC[C@H]2CN(C)C3)cccc1C(F)(F)F (single isomer, unassigned) [Example 32]
IC50: 58.2 nM

Cc1c([C@@H](C)NC(=O)c2cn(C3CCOCC3)c(=O)cc2N[C@H]2CCCN(C)CC2)cccc1C(F)(F)F (single isomer, unassigned) [Example 33]
IC50: 18 nM

Cc1c([C@@H](C)NC(=O)c2cn(C3CCOCC3)c(=O)cc2N[C@@H]2CCCN(C)CC2)cccc1C(F)(F)F (single isomer, unassigned) [Example 34]
IC50: 22.9 nM

Cc1c([C@@H](C)NC(=O)c2cn(C3CCOCC3)c(=O)cc2N[C@@H]2C[C@@H]3CC[C@H]2N3C)cccc1C(F)(F)F (single isomer, unassigned) [Example 37]
IC50: 32.9 nM

Cc1c([C@@H](C)NC(=O)c2cn(C3CCOCC3)c(=O)cc2N[C@H]2C[C@H]3CC[C@@H]2N3C)cccc1C(F)(F)F (single isomer, unassigned) [Example 38]
IC50: 45.8 nM

Cc1c([C@@H](C)NC(=O)c2cn(C3CCOCC3)c(=O)cc2N[C@H]2CCN(C)C3(CC3)C2)cccc1C(F)(F)F (single isomer, unassigned) [Example 39]
IC50: 43.7 nM

Cc1c([C@@H](C)NC(=O)c2cn(C3CCOCC3)c(=O)cc2N[C@@H]2CCN(C)C3(CC3)C2)cccc1C(F)(F)F (single isomer, unassigned) [Example 40]
IC50: 11.8 nM

C[C@@H](NC(=O)c1cn(C2(C(F)F)CC2)c(=O)cc1N[C@@H]1CCN(C)C[C@@H]1F)c1cccc(C(F)F)c1F (single isomer, unassigned) [Example 67]
IC50: 10.6 nM

C[C@@H](NC(=O)c1cn(C2(C(F)F)CC2)c(=O)cc1N[C@H]1CCN(C)C[C@H]1F)c1cccc(C(F)F)c1F (single isomer, unassigned) [Example 68]
IC50: 14.3 nM

C[C@@H](NC(=O)c1cn([C@H]2C[C@@H]2C2CC2)c(=O)cc1NC1CCN(C)CC1)c1cccc(C(F)F)c1F (single isomer, unassigned) [Example 73]
IC50: 13 nM

COc1ccc([C@@H](C)NC(=O)c2cn(C3(C(F)F)CC3)c(=O)cc2NC2CCN(C)CC2)c(F)c1C(F)(F)F (single isomer, unassigned) [Example 165]
IC50: 7940 nM

COc1ccc([C@H](C)NC(=O)c2cn(C3(C(F)F)CC3)c(=O)cc2NC2CCN(C)CC2)c(F)c1C(F)(F)F (single isomer, unassigned) [Example 166]
IC50: 193 nM

C[C@@H](NC(=O)c1cn(C2(C(F)F)CC2)c(=O)cc1NC1CCN(C)CC1)c1ccc(F)c(C(F)(F)F)c1 (single isomer, unassigned) [Example 167]
IC50: > 10000 nM

C[C@H](NC(=O)c1cn(C2(C(F)F)CC2)c(=O)cc1NC1CCN(C)CC1)c1ccc(F)c(C(F)(F)F)c1 (single isomer, unassigned) [Example 168]
IC50: 561 nM

Cc1cc([C@@H](C)NC(=O)c2cn(C3(C(F)F)CC3)c(=O)cc2NC2CCN(C)CC2)cc(C(F)(F)F)n1 (single isomer, unassigned) [Example 171]
IC50: 1250 nM

Cc1cc([C@H](C)NC(=O)c2cn(C3(C(F)F)CC3)c(=O)cc2NC2CCN(C)CC2)cc(C(F)(F)F)n1 (single isomer, unassigned) [Example 172]
IC50: > 10000 nM

C[C@@H](NC(=O)c1cn(C23CC(C2)C3)c(=O)cc1N[C@H]1[C@@H]2CN(C)C[C@@H]21)c1cccc(C#N)c1Cl (single isomer, unassigned) [Example 177]
IC50: 55.6 nM

C[C@H](NC(=O)c1cn(C23CC(C2)C3)c(=O)cc1N[C@H]1[C@@H]2CN(C)C[C@@H]21)c1cccc(C#N)c1Cl (single isomer, unassigned) [Example 178]
IC50: > 10000 nM

C[C@@H](NC(=O)c1cn(C2(C(F)F)CC2)c(=O)cc1N[C@H]1CCCn2cncc21)c1cccc(C(F)F)c1F (single isomer, unassigned) [Example 183]
IC50: 6.1 nM

C[C@@H](NC(=O)c1cn(C2(C(F)F)CC2)c(=O)cc1N[C@@H]1CCCn2cncc21)c1cccc(C(F)F)c1F (single isomer, unassigned) [Example 184]
IC50: 55.8 nM

Cc1c(C#N)cccc1[C@@H](C)NC(=O)c1cn([C@@H]2[C@@H](C)C2(F)F)c(=O)cc1N[C@H]1[C@@H]2CN(C)C[C@@H]21 (single isomer, unassigned) [Example 193]
IC50: 151 nM

Cc1c(C#N)cccc1[C@@H](C)NC(=O)c1cn([C@H]2[C@H](C)C2(F)F)c(=O)cc1N[C@H]1[C@@H]2CN(C)C[C@@H]21 (single isomer, unassigned) [Example 194]
IC50: 19.3 nM

C[C@@H]1[C@@H](n2cc(C(=O)N[C@H](C)c3cccc(C(C)(F)F)c3F)c(N[C@H]3[C@@H]4CN(C)C[C@@H]43)cc2=O)C1(F)F (single isomer, unassigned) [Example 195]
IC50: 5.44 nM

C[C@@H](NC(=O)c1cn([C@H]2[C@H](C)C2(F)F)c(=O)cc1N[C@H]1[C@@H]2CN(C)C[C@@H]21)c1cccc(C(C)(F)F)c1F (single isomer, unassigned) [Example 196]
IC50: 43.2 nM

C[C@@H]1[C@@H](n2cc(C(=O)N[C@H](C)c3cccc(C(F)(F)F)c3F)c(N[C@H]3[C@@H]4CN(C)C[C@@H]43)cc2=O)C1(F)F (single isomer, unassigned) [Example 197]
IC50: 31.7 nM

C[C@@H](NC(=O)c1cn([C@H]2[C@H](C)C2(F)F)c(=O)cc1N[C@H]1[C@@H]2CN(C)C[C@@H]21)c1cccc(C(F)(F)F)c1F (single isomer, unassigned) [Example 198]
IC50: 3.41 nM

C[C@@H](NC(=O)c1cn([C@@H]2CC2(F)F)c(=O)cc1N[C@H]1[C@@H]2CN(C)C[C@@H]21)c1cccc(C(F)(F)F)c1F (single isomer, unassigned) [Example 199]
IC50: 10.1 nM

C[C@@H](NC(=O)c1cn([C@H]2CC2(F)F)c(=O)cc1N[C@H]1[C@@H]2CN(C)C[C@@H]21)c1cccc(C(F)(F)F)c1F (single isomer, unassigned) [Example 200]
IC50: 16.7 nM

C[C@@H](NC(=O)c1cn([C@@H]2CC2(F)F)c(=O)cc1N[C@H]1[C@@H]2CN(C)C[C@@H]21)c1cccc(C(C)(F)F)c1F (single isomer, unassigned) [Example 201]
IC50: 14 nM

C[C@@H](NC(=O)c1cn([C@H]2CC2(F)F)c(=O)cc1N[C@H]1[C@@H]2CN(C)C[C@@H]21)c1cccc(C(C)(F)F)c1F (single isomer, unassigned) [Example 202]
IC50: 19.5 nM

C[C@@H](NC(=O)c1cn(C23CC(C2)C3)c(=O)cc1N[C@H]1CCN(C)C[C@H]1F)c1cccc(C(F)F)c1F (single isomer, unassigned) [Example 203]
IC50: 4.6 nM

C[C@@H](NC(=O)c1cn(C23CC(C2)C3)c(=O)cc1N[C@@H]1CCN(C)C[C@@H]1F)c1cccc(C(F)F)c1F (single isomer, unassigned) [Example 204]
IC50: 3.61 nM
